In patent US10946028B2, “Polymer conjugate of sulfoxide derivative-coordinated platinum(II) complex” (priority 2015, dated 2021):
“And” between values parts separate entries of the source, which are not always exact repeats. Identical values can stand only once. Like-named read-outs stand apart in the source and are kept apart here.

Legend:
[1] = system: Human gastric cancer 4-1ST; assay: Antitumor Test 1, human gastric cancer 4-1ST-transplanted mouse; assay type: in vivo, BALB/cA-nu/nu mice
Excerpt: (§1) Human gastric cancer 4-1ST was subcultured and maintained subcutaneously in BALB/cA-nu/nu mice (hereinafter, nude mice). Human gastric cancer 4-1ST was purchased from Central Institute for Experimental Animals.
Human gastric cancer 4-1ST was collected from the subcutaneous sites of nude mice, and the tumors were finely cut into blocks each measuring about 3 mm on one side. The tumor blocks thus obtained were transplanted subcutaneously into the dorsal side of nude mice using a trocar. On the 18th day after transplantation, when the average tumor volume reached about 100 to 200 mm^3, various drugs were intravenously administered through the caudal vein. […] As control drugs, 1-OHP was administered once at a dose of 20 mg/kg, and cisplatin was administered once at a dose of 10 mg/kg. Regarding the amounts of administration of 1-OHP and cisplatin, and the high amounts of administration of the various Example compounds, the maximum tolerable dose (MTD dose) was employed in all cases.
After the administration of the various drugs, the major axes (L) and the minor axes (W) of the tumors were measured over time using calipers, and the tumor volumes (L×W×W×0.5) were calculated. The test was carried out using four animals per group in all cases for a non-administered group and various drug-administered groups. For a period starting from the initiation of administration to the 20th day after administration, the relative tumor volume (T/C (%)) of each of the drug-administered groups was calculated by the following formula, based on the relative tumor volume of the non-administered group as 100, as an index of the antitumor effect. T/C (%)=Relative tumor volume of administered group/relative tumor volume of non-administered group×100 Formula: […]

[2] = system: Human gastric cancer 4-1ST; assay: Antitumor Test 3, human gastric cancer 4-1ST-transplanted mouse; assay type: in vivo, BALB/cA-nu/nu mice
Excerpt: as §1
Human gastric cancer 4-1ST was collected from subcutaneous sites of nude mice, and the tumors were finely cut into blocks each measuring about 3 mm on one side. The tumor blocks thus obtained were transplanted subcutaneously into the dorsal side of nude mice using a trocar. On the 17th day after transplantation, when the average tumor volume reached about 100 to 200 mm^3, various drugs were intravenously administered through the caudal vein. […] As a control drug, 1-OHP or cisplatin (CDDP) was administered once at a dose of 18 mg/kg or 10 mg/kg. Regarding the high amounts of administration of the administered compounds, the maximum tolerable dose (MTD dose) was employed in all cases. After the administration of the various drugs, the major axes (L) and the minor axes (W) of the tumors were measured over time using calipers, and the tumor volumes (L×W×W×0.5) were calculated. The test was carried out using four animals per group in all cases for a non-administered group and various drug-administered groups. For a period starting from the initiation of administration to the 21st day after administration, the T/C (%) values of the various drug-administered groups are presented in Table 5.

[3] = system: Human gastric cancer 4-1ST; assay: Antitumor Test 2, human gastric cancer 4-1ST-transplanted mouse; assay type: in vivo, BALB/cA-nu/nu mice; conditions: 18 mg/kg once i.v.
Excerpt: as §1
Human gastric cancer 4-1ST was collected from subcutaneous sites of nude mice, and the tumors were finely cut into blocks each measuring about 3 mm on one side. The tumor blocks thus obtained were transplanted subcutaneously into the dorsal side of nude mice using a trocar. On the 18th day after transplantation, when the average tumor volume reached about 100 to 200 mm^3, various drugs were intravenously administered through the caudal vein. […] As a control drug, 1-OHP was administered once at a dose of 18 mg/kg. […] Regarding Example 3 compound, the dose was less than or equal to the MTD dose; however, the dissolution limit of the compound was administered. After the administration of the various drugs, the major axes (L) and the minor axes (W) of the tumors were measured over time using calipers, and the tumor volumes (L×W×W×0.5) were calculated. The test was carried out using four animals per group in all cases for a non-administered group and various drug-administered groups. For a period starting from the initiation of administration to the 21st day after administration, the T/C (%) values of the various drug-administered groups are presented in Table 4.

[4] = system: DAN-G cells; assay: Proliferation inhibition test, concentration/time dependency; assay type: cell-based, Human
Description: Human pancreatic cancer cell line, DAN-G, was purchased from Asta Medica GmbH, and the cells were proliferated and subcultured in a recommended medium described in the pamphlet.
For DAN-G cells that had been cultured and proliferated on a 10 cm dish for cell culture, the culture fluid was removed, and the cells were washed once with 5 ml of PBS (phosphate buffered physiological saline). Subsequently, 1 ml of 0.25% trypsin/0.05% EDTA (ethylenediaminetetraacetic acid)/PBS was added to the cells, and the mixture was left to stand for 5 minutes at 37° C. After it was confirmed that the cells had been detached from the dish, 9 ml of medium was added to the dish to disperse the cells, the dispersion was transferred into a 15 ml tube (Corning, Inc.), and the dispersion was centrifuged for 5 minutes at 1,000 rpm. A supernatant was removed, subsequently 10 ml of fresh medium was added to the tube, and the cells were suspended. A portion of the cells was stained with Trypan Blue, and the viable cell count was measured using a hemocytometer. The suspended cells were diluted with medium to a concentration of 2.6×10^4 cells/ml, and the cells were inoculated onto five sheets of 96 well plate (Plates A, B, C, D, and E) at a volume of 190 μl/well (5×10^3 cells/well).
The cells were then cultured under the conditions of 37° C. and 5% CO2. Three replica wells were provided for each drug concentration.
A test was performed under five different conditions by changing the drug addition time.
For Plates A, B, C, D, and E that had been cultured for 72 hours as described above, the medium was removed, subsequently methanol was added to the plates, and the cells were thereby immobilized on the plates. After methanol was removed, a 0.05% Methylene Blue solution was added to the plate, and the cells were stained for 30 minutes. Methylene Blue was removed, any excess stain solution was washed with water, subsequently 3% hydrochloric acid was added to the plate at a volume of 200 μl/well, and thus Methylene Blue was extracted. The plates were left to stand for 2 hours or longer, and the absorbance at 660 nm was measured using a microplate reader (BENCHMARK PLUS, manufactured by Bio-Rad Laboratories, Inc.). Regarding the measured values, the average value of three replicas of a well for each drug concentration was taken. The proliferation inhibition ratio GI(x) % at a drug concentration x was calculated by the following formula from the absorbance values thus measured. GI(x)%=(1−(Ax−B)/(A0−B))×100

[5] = Body weight change in Antitumor Test 3; assay type: in vivo; conditions: 18 mg/kg once i.v., body weight on day of initiation = 1
Excerpt: Human gastric cancer 4-1ST was collected from subcutaneous sites of nude mice, and the tumors were finely cut into blocks each measuring about 3 mm on one side. The tumor blocks thus obtained were transplanted subcutaneously into the dorsal side of nude mice using a trocar. On the 17th day after transplantation, when the average tumor volume reached about 100 to 200 mm^3, various drugs were intravenously administered through the caudal vein. […] Regarding the high amounts of administration of the administered compounds, the maximum tolerable dose (MTD dose) was employed in all cases. After the administration of the various drugs, the major axes (L) and the minor axes (W) of the tumors were measured over time using calipers, and the tumor volumes (L×W×W×0.5) were calculated. The test was carried out using four animals per group in all cases for a non-administered group and various drug-administered groups.
After the administration, the body weights of the mice were measured over time.

[6] = Maximum tolerable dose (MTD dose) in the antitumor tests; assay type: in vivo, BALB/cA-nu/nu mice; conditions: administered once intravenously, nude mice
Description: Human gastric cancer 4-1ST was collected from the subcutaneous sites of nude mice, and the tumors were finely cut into blocks each measuring about 3 mm on one side. The tumor blocks thus obtained were transplanted subcutaneously into the dorsal side of nude mice using a trocar. On the 18th day after transplantation, when the average tumor volume reached about 100 to 200 mm^3, various drugs were intravenously administered through the caudal vein. […] As control drugs, 1-OHP was administered once at a dose of 20 mg/kg, and cisplatin was administered once at a dose of 10 mg/kg. […]
(§2) Human gastric cancer 4-1ST was collected from subcutaneous sites of nude mice, and the tumors were finely cut into blocks each measuring about 3 mm on one side. […] After the administration of the various drugs, the major axes (L) and the minor axes (W) of the tumors were measured over time using calipers, and the tumor volumes (L×W×W×0.5) were calculated. […]
as §2

With O=C1[O][Pt]2([NH][C@@H]3CCCC[C@H]3[NH]2)[O]C1=O [l-OHP, Oxaliplatin] the “T/C (%) on days after each administration” value (“T/C (%) on days” for short) ([1]; 20 mg/kg once i.v., day 0) was 100%, the “T/C (%) on days” value ([1]; 20 mg/kg once i.v., day 3) was 96% and the “T/C (%) on days” value ([1]; 20 mg/kg once i.v., day 6) was 53%. The “T/C (%) on days” value ([1]; 20 mg/kg once i.v., day 9) was 46%, the “T/C (%) on days” value ([1]; 20 mg/kg once i.v., day 13) was 46% and the “T/C (%) on days” value ([1]; 20 mg/kg once i.v., day 16) was 51%. The “T/C (%) on days” value ([1]; 20 mg/kg once i.v., day 20) was 50%, the “T/C (%) on days” value ([2]; 18 mg/kg once i.v., day 0) was 100% and the “T/C (%) on days” value ([2]; 18 mg/kg once i.v., day 4) was 84%. For the same compound, the “T/C (%) on days” value ([2]; 18 mg/kg once i.v., day 7) was 52%, the “T/C (%) on days” value ([2]; 18 mg/kg once i.v., day 11) was 50% and the “T/C (%) on days” value ([2]; 18 mg/kg once i.v., day 14) was 50%. For the same compound, the “T/C (%) on days” value ([2]; 18 mg/kg once i.v., day 18) was 60%, the “T/C (%) on days” value ([2]; 18 mg/kg once i.v., day 21) was 57% and the “T/C (%) on days” value ([3]; day 0) was 100%. The “T/C (%) on days” value ([3]; day 3) was 100%, the “T/C (%) on days” value ([3]; day 7) was 65% and the “T/C (%) on days” value ([3]; day 10) was 58%. The “T/C (%) on days” value ([3]; day 14) was 57%, the “T/C (%) on days” value ([3]; day 17) was 61% and the “T/C (%) on days” value ([3]; day 21) was 60%. The IC50 ([4]; drug exposure 6 hours, 72 hours total culture, concentration in terms of DACH-platin, read-out: IC50, 6 hours) was 9000 nM, the IC50 ([4]; drug exposure 24 hours, 72 hours total culture, concentration in terms of DACH-platin, read-out: IC50, 24 hours) was 1800 nM and the IC50 ([4]; drug exposure 48 hours, 72 hours total culture, concentration in terms of DACH-platin, read-out: IC50, 48 hours) was 900 nM. The IC50 ([4]; drug exposure 72 hours, concentration in terms of DACH-platin, read-out: IC50, 72 hours) was 900 nM, the “IC50 (6 hours)/IC50 (72 hours)” value ([4]; ratio of IC50 values) was 10.0 and the IC50 ([4]; read-out: IC50, 2 hour, drug exposure 2 hours, 72 hours total culture, concentration in terms of DACH-platin) was 44100 nM. For the same compound, the “Relative body weight on days after administration” value (“Relative body weight on days” below) ([5]; day 0) was 1.00, the “Relative body weight on days” value ([5]; day 4) was 0.78 and the “Relative body weight on days” value ([5]; day 7) was 0.83. For the same compound, the “Relative body weight on days” value ([5]; day 11) was 0.93, the “Relative body weight on days” value ([5]; day 14) was 1.03 and the “Relative body weight on days” value ([5]; day 18) was 1.09. The “Relative body weight on days” value ([5]; day 21) was 1.05 and the “Maximum tolerable dose (MTD dose)” value ([6]; listed as 1-OHP) was 20 mg/kg and 18 mg/kg.

In the case of N.N.[Cl][Pt][Cl] [Cisplatin, cisplatin], the “T/C (%) on days” value ([1]; 10 mg/kg once i.v., day 0) is reported as 100%, the “T/C (%) on days” value ([1]; 10 mg/kg once i.v., day 3) is reported as 91% and the “T/C (%) on days” value ([1]; 10 mg/kg once i.v., day 6) is reported as 49%. The “T/C (%) on days” value ([1]; 10 mg/kg once i.v., day 9) was 32%, the “T/C (%) on days” value ([1]; 10 mg/kg once i.v., day 13) was 31% and the “T/C (%) on days” value ([1]; 10 mg/kg once i.v., day 16) was 35%. The “T/C (%) on days” value ([1]; 10 mg/kg once i.v., day 20) was 36%, the “T/C (%) on days” value ([2]; 10 mg/kg once i.v., day 0) was 100% and the “T/C (%) on days” value ([2]; 10 mg/kg once i.v., day 4) was 77%. The “T/C (%) on days” value ([2]; 10 mg/kg once i.v., day 7) was 43%, the “T/C (%) on days” value ([2]; 10 mg/kg once i.v., day 11) was 32% and the “T/C (%) on days” value ([2]; 10 mg/kg once i.v., day 14) was 36%. The “T/C (%) on days” value ([2]; 10 mg/kg once i.v., day 18) was 37%, the “T/C (%) on days” value ([2]; 10 mg/kg once i.v., day 21) was 42% and the “Maximum tolerable dose (MTD dose)” value [6] was 10 mg/kg.
